# Biological target: T1, Pin1 (Homo sapiens, UniProt Q13526)
# T1 construct: purchased Anaspec
# Assay: Evaluation of Pin1 enzyme inhibitory activity (Sensolyte Green Pin1 assay kit)
# Type: biochemical
# Conditions: Table 2; read-out: concentration at which Pin1 inhibitory activity was exhibited
# Procedure: In order to evaluate the Pin1 enzyme inhibitory activity of the compound represented by formula 1 according to the present invention, the following experiment was performed, and the results are shown in Table 2 below.
# The enzyme activity of Pin1 protein was measured using a sensolyte Green Pin1 assay kit of Anaspec. The substrate was diluted in a buffer at a ratio of 1:100 to prepare a concentration of 1 μM, and the protein was diluted in a buffer at a ratio of 1:20 to prepare a concentration of 50 μg/ml. In addition, a developing solution was prepared by diluting thereof in a buffer at a ratio of 1:100.
# The compound prepared in each example was diluted with DMSO and prepared at a concentration of 100 μM, 10 μM, 1 μM or 0.1 μM using a buffer. After sequentially adding 10 μl of the compound prepared in each Example diluted to four concentrations according to the above method, 10 μl of Pin1 protein, and 30 μl of the developing solution to each well of a black 96-well plate, […]. Finally, 50 μl of the substrate was added to each well of the plate, and the enzyme reaction was carried out after shaking the plate for 10 seconds.
# Then, the plate was incubated for 2 hours at room temperature in an environment without light, and the fluorescence values at 490 nm/520 nm wavelength were measured using a device of Synergy Neo […]. The results are shown in Table 2 below by dividing the grades of A to D for each concentration (μM) at which the Pin1 enzyme activity is inhibited.
# T1 sequence (Q13526 whole entry): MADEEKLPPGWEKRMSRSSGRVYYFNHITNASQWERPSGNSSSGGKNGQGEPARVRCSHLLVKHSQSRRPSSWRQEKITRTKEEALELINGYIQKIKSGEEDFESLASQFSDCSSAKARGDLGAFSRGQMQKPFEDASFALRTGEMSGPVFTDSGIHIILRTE
row,Structure (SMILES),IC50 [µM]
1,"CN1CCN(CC2(COc3ccc(S(=O)(=O)NCCCc4c[nH]c5ccc(Cl)cc45)cc3)CC2)CC1 [Example 116, N-(3-(5-chloro-1H-indole-3-yl)propyl)-4-((1-((4-methylpiperazine-1-yl)methyl)cyclopropyl)methoxy)benzenesulfonamide]",< 1
2,"O=S(=O)(NCCCc1c[nH]c2ccc(Cl)cc12)c1ccc(OCCCN2CCCCCC2)cc1 [Example 101, 4-(3-(azepan-1-yl)propoxy)-N-(3-(5-chloro-1H-indol-3-yl)propyl)benzenesulfonamide]",< 1

# Same assay, conditions: concentration at which the Pin1 enzyme activity is inhibited; 2 hours at room temperature, fluorescence 490 nm/520 nm; read-out: Pin 1 inhibition
row,Structure (SMILES),IC50 [µM]
1,"CN(C)CCCOc1ccc(S(=O)(=O)NCCc2cc3ccccc3[nH]2)cc1 [Example 38, N-(2-(1H-indol-2-yl)ethyl)-4-(3-(dimethylamino)propoxy)benzenesulfonamide]",> 100
2,"CCCCOc1ccc(S(=O)(=O)NCCCc2cccnc2)cc1 [Example 5, 4-butoxy-N-(3-(pyridin-3-yl)propyl)benzensulfonamide]",> 100
3,"CCCCOc1ccc(S(=O)(=O)NCCCc2nc3ccccc3[nH]2)cc1 [Example 28, N-(3-(1H-benzo[d]imidazol-2-yl)propyl)-4-butoxybenzenesulfonamide]",> 100
4,"CCCCOc1ccc(S(=O)(=O)NCCc2c[nH]c3ccc(O)cc23)cc1 [Example 29, 4-butoxy-N-(2-(5-hydroxy-1H-indol-3-yl)ethyl)benzenesulfonamide]",> 100
5,"CN(C)CCCOc1ccc(S(=O)(=O)NCCc2ccccc2)cc1 [Example 14, 4-(3-(dimethylamino)propoxy)-N-phenethylbenzenesulfonamide]",> 100
6,"CN1CCN(CCCOc2ccc(S(=O)(=O)Nc3ccccc3C(C)(C)c3c[nH]c4ccc(Cl)cc34)cc2)CC1 [Example 181, N-(2-(2-(5-chloro-1H-indole-3-yl)propane-2-yl)phenyl)-4-(3-(4-methylpiperazine-1-yl)propoxy)benzenesulfonamide]",1 to 10
7,"CN1CCN(CC2(COc3ccc(S(=O)(=O)NCCCc4c[nH]c5ccc(Cl)cc45)cc3)CC2)CC1 [Example 116, N-(3-(5-chloro-1H-indole-3-yl)propyl)-4-((1-((4-methylpiperazine-1-yl)methyl)cyclopropyl)methoxy)benzenesulfonamide]",< 1
8,"CN1CCN(CCCOc2ccc(S(=O)(=O)NCCc3c[nH]c4ccccc34)cc2)CC1 [Example 50, N-(2-(1H-indol-3-yl)ethyl)-4-(3-(4-methylpiperazin-1-yl)propoxy)benzenesulfonamide]",10 to 100
9,"CN(C)CCCOc1ccc(S(=O)(=O)NCCCc2cn(C)c3ccccc23)cc1 [Example 46, 4-(3-(dimethylamino)propoxy)-N-(3-(1-methyl-1H-indole-3-yl)propyl)benzenesulfonamide]",> 100
10,"O=C(NCCCc1c[nH]c2ccc(Cl)cc12)c1ccc(OCCCN2CCNCC2)cc1 [Example 144, N-(3-(5-chloro-1H-indol-3-yl)propyl)-4-(3-(piperazin-1-yl)propoxy)benzamide]",1 to 10
11,"CN1CCN(CCCOc2ccc(S(=O)(=O)NC3CCCC(c4c[nH]c5ccc(Cl)cc45)C3)cc2)CC1 (stereo not shown) [Example 179, N-(3-(5-chloro-1H-indol-3-yl)cyclohexyl)-4-(3-(4-methylpiperazin-1-yl)propoxy)benzenesulfonamide]",1 to 10
12,"CC(C)CCOc1ccc(S(=O)(=O)NCCCc2c[nH]c3ccccc23)cc1 [Example 26, N-(3-(1H-indol-3-yl)propyl)-4-(isopentyloxy)benzenesulfonamide]",10 to 100
13,"CCCCOc1ccc(S(=O)(=O)NCCc2ccc(C(=O)O)cc2)cc1 [Example 8, 4-(2-(4-butoxyphenylsulfonamido)ethyl)benzoic acid]",> 100
14,"O=S(=O)(NCCCc1c[nH]c2ccc(Cl)cc12)c1ccc(OCCCN2CCCCCC2)cc1 [Example 101, 4-(3-(azepan-1-yl)propoxy)-N-(3-(5-chloro-1H-indol-3-yl)propyl)benzenesulfonamide]",< 1
15,"CCCCCOc1ccc(S(=O)(=O)NCCCc2c[nH]c3ccccc23)cc1 [Example 27, N-(3-(1H-indol-3-yl)propyl)-4-(pentyloxy)benzenesulfonamide]",10 to 100
16,"O=S(=O)(NCCCc1c[nH]c2ccc(Cl)cc12)c1cccc(OCCCC2CCNCC2)c1 [Example 94, N-(3-(5-chloro-1H-indol-3-yl)propyl)-3-(3-(piperidin-4-yl)propoxy)benzenesulfonamide]",1 to 10
17,"O=S(=O)(NCCCc1c[nH]c2ccc(Cl)cc12)c1ccc(Oc2cccc(N3CCCC3)c2)cc1 [Example 135, N-(3-(5-chloro-1H-indol-3-yl)propyl)-4-(3-(pyrrolidin-1-yl)phenoxy)benzenesulfonamide]",1 to 10
18,"O=S(=O)(NCCCc1c[nH]c2ccccc12)c1ccc(Br)cc1 [Example 47, N-(3-(1H-indole-3-yl)propyl)-4-bromobenzenesulfonamide]",> 100
19,"CCCCOc1ccc(S(=O)(=O)NCCCc2ccc(-c3ccccc3)cc2)cc1 [Example 1, N-(3-([1,1′-biphenyl]-4-yl)propyl)-4-butoxybenzenesulfonamide]",> 100

row,Structure (SMILES),IC50 [µM]
1,"O=S(=O)(NC1CCCC(c2c[nH]c3ccc(Cl)cc23)C1)c1ccc(OCCCN2CCNCC2)cc1 (stereo not shown) [Example 180, N-(3-(5-chloro-1H-indol-3-yl)cyclohexyl)-4-(3-(piperazin-1-yl)propoxy)benzenesulfonamide]",1 to 10
2,CCCCOc1ccc(S(=O)(=O)NCCc2nc3ccccc3[nH]2)cc1 [Example 23],> 100
3,"CCCCOc1ccc(S(=O)(=O)NCCc2ccc(C(=O)OC)cc2)cc1 [Example 9, methyl 4-(2-(4-butoxyphenylsulfonamido)ethyl)benzoate]",> 100
4,"CCCCOc1ccc(S(=O)(=O)NCCCN2CCN(C(C)C)CC2)cc1 [Example 2, 4-butoxy-N-(3-(4-isopropylpiperazin-1-yl)propyl)benzenesulfonamide]",> 100
5,"C[C@@H]1CN(CCCOc2ccc(S(=O)(=O)NCCCc3c[nH]c4ccc(F)cc34)cc2)C[C@H](C)N1 [Example 72, 4-(3-((3S,5R)-3,5-dimethylpiperazine-1-yl)propoxy)-N-(3-(5-fluoro-1H-indole-3-yl)propyl)benzenesulfonamide]",10 to 100
6,"CN1CCN(CCCOc2ccc(S(=O)(=O)NC3CCCC(c4c[nH]c5ccccc45)C3)cc2)CC1 (stereo not shown) [Example 85, N-(3-(1H-indole-3-yl)cyclohexyl)-4-(3-(4-methylpiperazine-1-yl)propoxy)benzenesulfonamide]",10 to 100
7,"CN(C)CCCOc1ccc(S(=O)(=O)NCCc2ccc(C(=O)O)cc2)cc1 [Example 17, 4-(2-(4-(3-(dimethylamino)propoxy)phenylsulfonamido)ethyl)benzoic acid]",> 100
8,"O=S(=O)(NCCCc1c[nH]c2ccc(Cl)cc12)c1ccc(Oc2cccc(N3CCCCC3)c2)cc1 [Example 120, N-(3-(5-chloro-1H-indol-3-yl)propyl)-4-(3-(piperidin-1-yl)phenoxy)benzenesulfonamide]",1 to 10
9,"O=S(=O)(NCCCc1c[nH]c2ccc(F)cc12)c1ccc(OCCCC2CCNCC2)cc1 [Example 97, N-(3-(5-fluoro-1H-indol-3-yl)propyl)-4-(3-(piperidin-4-yl)propoxy)benzenesulfonamide]",1 to 10
10,"CCCCOc1ccc(S(=O)(=O)NCCCN2CCOCC2)cc1 [Example 6, 4-butoxy-N-(3-morpholinopropyl)benzenesulfonamide]",> 100
11,"CCCCOc1ccc(S(=O)(=O)NCCC(O)c2ccccc2)cc1 (stereo not shown) [Example 11, 4-butoxy-N-(3-hydroxy-3-phenylpropyl)benzenesulfonamide]",10 to 100
12,"CC(C)N1CCN(CCCOc2ccc(S(=O)(=O)NCCc3c[nH]c4ccccc34)cc2)CC1 [Example 51, N-(2-(1H-indol-3-yl)ethyl)-4-(3-(4-isopropylpiperazin-1-yl)propoxy)benzenesulfonamide]",> 100
13,"CCCCOc1ccc(S(=O)(=O)NCCCc2ccc(Cl)cc2)cc1 [Example 3, 4-butoxy-N-(3-(4-chlorophenyl)propyl)benzenesulfonamide]",> 100
14,"COc1ccc2[nH]cc(CCNS(=O)(=O)c3ccc(OCCCN4CCN(C)CC4)cc3)c2c1 [Example 49, N-(2-(5-methoxy-1H-indol-3-yl)ethyl)-4-(3-(4-methylpiperazin-1-yl)propoxy)benzenesulfonamide]",10 to 100
15,"CN(C)CCCOc1ccc(S(=O)(=O)NCCCc2ccccc2)cc1 [Example 15, 4-(3-(dimethylamino)propoxy)-N-(3-phenylpropyl)benzenesulfonamide]",> 100
16,"CC(C)N1CCN(CCCOc2ccc(S(=O)(=O)NCCCc3c[nH]c4ccccc34)cc2)CC1 [Example 48, N-(3-(1H-indol-3-yl)propyl)-4-(3-(4-isopropylpiperazin-1-yl)propoxy)benzenesulfonamide]",10 to 100
17,"COc1ccc2[nH]cc(CCCNS(=O)(=O)c3ccc(OCCCN4CCN(C)CC4)cc3)c2c1 [Example 68, N-(3-(5-methoxy-1H-indol-3-yl)propyl)-4-(3-(4-methylpiperazin-1-yl)propoxy)benzenesulfonamide]",1 to 10
18,"O=S(=O)(NCCCc1c[nH]c2ccccc12)c1ccc(OCCCN2CCCCC2)cc1 [Example 43, N-(3-(1H-indol-3-yl)propyl)-4-(3-(piperidin-1-yl)propoxy)benzenesulfonamide]",10 to 100
19,"CN1CCN(CCCOc2ccc(S(=O)(=O)Nc3cccc(-c4c[nH]c5ccccc45)c3)cc2)CC1 [Example 89, N-(3-(1H-indole-3-yl)phenyl)-4-(3-(4-methylpiperazine-1-yl)propoxy)benzenesulfonamide]",10 to 100

# — patent publication US12583818B2 (DAEGU-GYEONGBUK MEDICAL INNOVATION FOUNDATION, priority 2020, dated 2026)
